Experimental data taken from patent publication US5519006A, “Phosphonated arylethanolamine compounds with anti-hyperglycemic and/or anti-obesity activity” (SmithKline Beecham plc, priority 1992, dated 1996).

How the values were obtained:
Rat β2 adrenoceptor = target: T1, Rat β2 adrenoceptor (Rattus norvegicus, UniProt P10608); experiment: β2-Adrenoceptor agonism, inhibition of contraction of K+-pre-contracted uterine strips; format: cell-based; conditions: pre-contracted with 40 mM K+
T1 construct: Rat uterine horns were removed and bisected longitudinally; from tissue; host or cells: rat uterine horns (uterine strips)
Protocol: (§1) Agonist Activity at Rat β1 and β2 Adrenoceptors In Vitro
Rat uterine horns were removed and bisected longitudinally. Each tissue was tied to a glass tissue holder and placed in Krebs-Henseleit solution in a 30 ml organ bath as before. Tissues were placed under a resting tension of 1 g and allowed to equilibrate. Each uterine strip was pre-contracted by the addition of 40 mM K^+ to the bath to produced a steady tonic contraction. β-agonists were then added to the bath in a cumulative manner and results were expressed as percentage inhibition of contraction.
(§2) Agonist EC50 (atria) and IC50 (uteri) were calculated as the concentration of agonist producing 50% of their maximum increase in atrial rate or uterine relaxation. Relative intrinsic activity expressed as the maximal responses to test agonists relative to isoprenaline (=1.0) in both atria and uteri.

Rat white adipocytes = experiment: Lipolysis stimulated in rat white adipocytes (glycerol release); format: cell-based; conditions: Adipocyte, 0.5 h, 30 minutes
Protocol: Rat white adipocytes were prepared by collagenase digestion as described by Rodbell (1964) with the modification of Honnor et al. (1985), in that adenosine (200 nM) was included in the preparation to inhibit basal lipolysis.
Lipolysis stimulated by β-agonists was measured over 30 minutes in medium where the adenosine concentration was controlled; the medium included (-)-N^6 -(2-phenylisopropyl)adenosine (100 nM)+deaminase as decribed by Honnor et al. (1985). The incubation was stopped by addition of trichloracetic acid (0.2 ml of 10% w/v) to 1 ml of cells. Glycerol was measured by the fluorimetric method of Boobis and Maugham (1983).

Rat β1 adrenoceptor = target: T2, Rat β1 adrenoceptor (Rattus norvegicus, UniProt P18090); experiment: β1-Adrenoceptor agonism, increase in rate of spontaneously beating right atria; format: cell-based, Rat (female Sprague-Dawley); conditions: in vitro, 37° C., Krebs-Henseleit solution
T2 construct: Spontaneously beating right atria were removed; from tissue; host or cells: right atria of female Sprague-Dawley rats
Protocol: as §1
Female Sprague-Dawley rats (150-250 g) were killed by a blow to the head and exsanguinated. Spontaneously beating right atria were removed by the method of Broadley and Lumley (1977) and mounted on a glass tissue holder. Each tissue was placed in 30 ml organ baths at 37° C. containing Kreb's-Henseleit solution. Each atrium was attached to an isometric transducer by cotton and placed under an initial resting tension of 1 g. Rate recordings from the spontaneous beating atria were obtained from the tension signal using a Lectromed Type 4522 ratemeter. All traces were recorded on a Lectromed M4 chart recorder. β-adrenoceptor agonists were then added to the Krebs medium in a cumulative fashion and the results expressed as a percentage increase in atrial rate.
as §2

T2 sequence (P18090 whole entry): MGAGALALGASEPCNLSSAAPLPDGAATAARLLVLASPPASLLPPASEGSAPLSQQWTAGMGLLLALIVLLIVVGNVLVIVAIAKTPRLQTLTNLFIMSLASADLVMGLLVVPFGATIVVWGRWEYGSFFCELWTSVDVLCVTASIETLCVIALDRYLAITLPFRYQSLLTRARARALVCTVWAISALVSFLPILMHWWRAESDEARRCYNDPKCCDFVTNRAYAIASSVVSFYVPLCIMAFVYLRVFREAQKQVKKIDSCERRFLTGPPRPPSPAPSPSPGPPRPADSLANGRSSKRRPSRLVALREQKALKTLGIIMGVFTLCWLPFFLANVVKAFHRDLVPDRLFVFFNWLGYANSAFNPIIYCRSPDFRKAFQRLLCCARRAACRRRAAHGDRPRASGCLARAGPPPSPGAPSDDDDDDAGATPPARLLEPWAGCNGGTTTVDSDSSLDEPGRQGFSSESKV
T1 sequence (P10608 whole entry): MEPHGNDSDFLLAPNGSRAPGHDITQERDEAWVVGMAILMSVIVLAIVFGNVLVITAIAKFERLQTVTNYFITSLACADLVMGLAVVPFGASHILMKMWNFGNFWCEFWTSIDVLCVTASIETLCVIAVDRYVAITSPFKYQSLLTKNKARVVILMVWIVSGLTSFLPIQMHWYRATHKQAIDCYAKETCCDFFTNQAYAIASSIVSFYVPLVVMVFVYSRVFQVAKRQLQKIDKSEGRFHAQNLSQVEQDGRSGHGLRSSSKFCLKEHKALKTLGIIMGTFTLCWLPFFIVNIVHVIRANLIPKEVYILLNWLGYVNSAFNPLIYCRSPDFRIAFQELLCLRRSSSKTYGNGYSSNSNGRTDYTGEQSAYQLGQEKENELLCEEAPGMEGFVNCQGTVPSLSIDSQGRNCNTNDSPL

With `CCOP(=O)(O)COc1ccc(C[C@@H](C)NC[C@H](O)c2cccc(Cl)c2)cc1` (relative stereo) [Example 2, (RR,SS)-Sodium Ethyl 4-[2-[2-(3-chlorophenyl)-2-hydroxyethylamino]propyl]phenoxymethylphosphonate] the Ki (Rat β2 adrenoceptor) was 10000 nM, the EC50 (Rat white adipocytes) was 0.077 µM and the Emax (Rat white adipocytes; read-out: Intrinsic Activity) was 95%. The Ki (Rat β1 adrenoceptor) was 37600 nM.
